# Assays:
# [1] = tested on: COR-L23; assay: cells; type: functional, cell-based, Homo sapiens; settings: Homo sapiens, COR-L23;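 further: cell viability assay measuring how strongly compounds suppress growth of COR-L23 cells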
# Description: SANGER: Inhibition of human COR-L23 cell growth in a cell viability assay.
# [2] = tested on: CP50-MEL-B; assay: cells; type: functional, cell-based, Homo sapiens; settings: Homo sapiens, CP50-MEL-B;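 further: growth inhibition of the human cell line, measured with a cell viability read-out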
# Description: SANGER: Inhibition of human CP50-MEL-B cell growth in a cell viability assay.
# [3] = tested on: Ca-Ski; assay: cells; type: functional, cell-based, Homo sapiens; settings: Homo sapiens, Ca-Ski;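 further: cell viability assay measuring inhibition of Ca-Ski cell growth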
# Description: SANGER: Inhibition of human Ca-Ski cell growth in a cell viability assay.
# [4] = tested on: G-402; assay: cells; type: functional, cell-based, Homo sapiens; settings: Homo sapiens, G-402
# Description: SANGER: Inhibition of human G-402 cell growth in a cell viability assay.
# [5] = tested on: HuO-3N1; assay: cells; type: functional, cell-based, Homo sapiens; settings: Homo sapiens, HuO-3N1;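 further: cell viability readout used to measure how strongly compounds suppress proliferation of human HuO-3N1 cells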
# Description: SANGER: Inhibition of human HuO-3N1 cell growth in a cell viability assay.
# [6] = tested on: NCI-H1048; assay: cells; type: functional, cell-based, Homo sapiens; settings: Homo sapiens, NCI-H1048;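 further: growth inhibition of human NCI-H1048 cells, read out with a cell viability assay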
# Description: SANGER: Inhibition of human NCI-H1048 cell growth in a cell viability assay.
# [7] = tested on: NCI-H1573; assay: cells; type: functional, cell-based, Homo sapiens; settings: Homo sapiens, NCI-H1573;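 further: growth inhibition of NCI-H1573 cells, read out with a cell viability assay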
# Description: SANGER: Inhibition of human NCI-H1573 cell growth in a cell viability assay.
# [8] = tested on: NCI-H1651; assay: cells; type: functional, cell-based, Homo sapiens; settings: Homo sapiens, NCI-H1651;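 further: Read-out is a cell viability assay, with IC50 expressing inhibition of NCI-H1651 cell growth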
# Description: SANGER: Inhibition of human NCI-H1651 cell growth in a cell viability assay.
# [9] = tested on: NCI-H2342; assay: cells; type: functional, cell-based, Homo sapiens; settings: Homo sapiens, NCI-H2342;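 further: growth inhibition of the cancer cell line, determined with a cell viability assay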
# Description: SANGER: Inhibition of human NCI-H2342 cell growth in a cell viability assay.
# [10] = tested on: OAW-42; assay: cells; type: functional, cell-based, Homo sapiens; settings: Homo sapiens, OAW-42;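 further: growth inhibition of OAW-42 cells, read out with a cell viability assay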
# Description: SANGER: Inhibition of human OAW-42 cell growth in a cell viability assay.
# [11] = tested on: OVCAR-8; assay: cells; type: functional, cell-based, Homo sapiens; settings: Homo sapiens, OVCAR-8;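 further: growth inhibition of human OVCAR-8 cells, read out by a cell viability assay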
# Description: SANGER: Inhibition of human OVCAR-8 cell growth in a cell viability assay.
# [12] = tested on: PANC-08-13; assay: cells; type: functional, cell-based, Homo sapiens; settings: Homo sapiens, PANC-08-13
# Description: SANGER: Inhibition of human PANC-08-13 cell growth in a cell viability assay.
# [13] = tested on: SF-295; assay: cells; type: functional, cell-based, Homo sapiens; settings: Homo sapiens, SF-295;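 further: growth inhibition of SF-295 cells, read out with a cell viability assay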
# Description: SANGER: Inhibition of human SF295 cell growth in a cell viability assay.
# [14] = tested on: SK-HEP1; assay: cells; type: functional, cell-based, Homo sapiens, SK-HEP-1; settings: Homo sapiens, SK-HEP1;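 further: cell viability readout used to quantify reduction in proliferation of human SK-HEP-1 cells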
# Description: SANGER: Inhibition of human SK-HEP-1 cell growth in a cell viability assay.
# [15] = tested on: SKG-IIIa; assay: cells; type: functional, cell-based, Homo sapiens; settings: Homo sapiens, SKG-IIIa;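 further: cell growth inhibition, read out with a cell viability assay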
# Description: SANGER: Inhibition of human SKG-IIIa cell growth in a cell viability assay.
# [16] = tested on: SNU-387; assay: cells; type: functional, cell-based, Homo sapiens; settings: Homo sapiens, SNU-387
# Description: SANGER: Inhibition of human SNU-387 cell growth in a cell viability assay.
# [17] = tested on: SW1783; assay: cells; type: functional, cell-based, Homo sapiens; settings: Homo sapiens, SW1783
# Description: SANGER: Inhibition of human SW1783 cell growth in a cell viability assay.
# [18] = tested on: SW48; assay: cells; type: functional, cell-based, Homo sapiens; settings: Homo sapiens, SW48;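 further: growth inhibition of SW48 cells, read out with a cell viability assay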
# Description: SANGER: Inhibition of human SW48 cell growth in a cell viability assay.
# [19] = tested on: SW756; assay: cells; type: functional, cell-based, Homo sapiens; settings: Homo sapiens, SW756;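 further: growth inhibition of human SW756 cells, read out with a cell viability assay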
# Description: SANGER: Inhibition of human SW756 cell growth in a cell viability assay.
# [20] = tested on: SiHa; assay: cells; type: functional, cell-based, Homo sapiens; settings: Homo sapiens, SiHa;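 further: Viability-based readout of growth inhibition in SiHa cells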
# Description: SANGER: Inhibition of human SiHa cell growth in a cell viability assay.
# [21] = tested on: T98G; assay: cells; type: functional, cell-based, Homo sapiens; settings: Homo sapiens, T98G;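 further: growth inhibition of T98G cells, read out by a cell viability assay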
# Description: SANGER: Inhibition of human T98G cell growth in a cell viability assay.
# [22] = tested on: ASPC1; assay: cells; type: functional, cell-based, Homo sapiens; settings: Homo sapiens, ASPC1;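 further: growth inhibition of AsPC-1 cells, read out with a cell viability assay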
# Description: SANGER: Inhibition of human AsPC-1 cell growth in a cell viability assay.
# [23] = tested on: U2OS; assay: cells; type: functional, cell-based, Homo sapiens, U-2-OS; settings: Homo sapiens, U2OS;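 further: growth inhibition of human U-2-OS cells, determined with a cell viability assay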
# Description: SANGER: Inhibition of human U-2-OS cell growth in a cell viability assay.
# [24] = tested on: UACC-893; assay: cells; type: functional, cell-based, Homo sapiens; settings: Homo sapiens, UACC-893
# Description: SANGER: Inhibition of human UACC-893 cell growth in a cell viability assay.
# [25] = tested on: UMC-11; assay: cells; type: functional, cell-based, Homo sapiens; settings: Homo sapiens, UMC-11;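 further: growth inhibition of UMC-11 cells, read out with a cell viability assay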
# Description: SANGER: Inhibition of human UMC-11 cell growth in a cell viability assay.
# [26] = tested on: EW-22; assay: cells; type: functional, cell-based, Homo sapiens; settings: Homo sapiens, EW-22;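 further: growth inhibition of the EW-22 cell line, measured with a cell viability readout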
# Description: SANGER: Inhibition of human EW-22 cell growth in a cell viability assay.
# [27] = tested on: MDA-MB-157; assay: cells; type: functional, cell-based, Homo sapiens; settings: Homo sapiens, MDA-MB-157
# Description: SANGER: Inhibition of human MDA-MB-157 cell growth in a cell viability assay.
# [28] = tested on: MDA-MB-231; assay: cells; type: functional, cell-based, Homo sapiens; settings: Homo sapiens, MDA-MB-231
# Description: SANGER: Inhibition of human MDA-MB-231 cell growth in a cell viability assay.
# [29] = tested on: MFE-280; assay: cells; type: functional, cell-based, Homo sapiens; settings: Homo sapiens, MFE-280;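 further: growth inhibition of MFE-280 cells, determined with a cell viability readout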
# Description: SANGER: Inhibition of human MFE-280 cell growth in a cell viability assay.
# [30] = tested on: NCI-H1993; assay: cells; type: functional, cell-based, Homo sapiens; settings: Homo sapiens, NCI-H1993;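 further: growth inhibition of the cancer cell line, assessed with a cell viability assay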
# Description: SANGER: Inhibition of human NCI-H1993 cell growth in a cell viability assay.
# [31] = tested on: A204; assay: cells; type: functional, cell-based, Homo sapiens; settings: Homo sapiens, A204;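 further: growth inhibition of human A204 cells, read out with a cell viability assay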
# Description: SANGER: Inhibition of human A204 cell growth in a cell viability assay.
# [32] = tested on: BPH-1; assay: cells; type: functional, cell-based, Homo sapiens; settings: Homo sapiens, BPH-1;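 further: cell viability assay measuring growth inhibition of human BPH-1 cells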
# Description: SANGER: Inhibition of human BPH-1 cell growth in a cell viability assay.
# [33] = tested on: CAL-12T; assay: cells; type: functional, cell-based, Homo sapiens; settings: Homo sapiens, CAL-12T;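 further: growth inhibition of human CAL-12T cells, read out with a cell viability assay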
# Description: SANGER: Inhibition of human CAL-12T cell growth in a cell viability assay.
# [34] = tested on: VM-CUB-1; assay: cells; type: functional, cell-based, Homo sapiens; settings: Homo sapiens, VM-CUB-1;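 further: cell viability assay measuring growth inhibition of the human VM-CUB-1 cell line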
# Description: SANGER: Inhibition of human VM-CUB-1 cell growth in a cell viability assay.
# [35] = tested on: D-336MG; assay: cells; type: functional, cell-based, Homo sapiens; settings: Homo sapiens, D-336MG
# Description: SANGER: Inhibition of human D-336MG cell growth in a cell viability assay.
# [36] = tested on: CPC-N; assay: cells; type: functional, cell-based, Homo sapiens; settings: Homo sapiens, CPC-N;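 further: growth inhibition of CPC-N cells, with a cell viability assay as the readout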
# Description: SANGER: Inhibition of human CPC-N cell growth in a cell viability assay.
# [37] = tested on: DMS-153; assay: cells; type: functional, cell-based, Homo sapiens; settings: Homo sapiens, DMS-153
# Description: SANGER: Inhibition of human DMS-153 cell growth in a cell viability assay.
# [38] = tested on: EB-3; assay: cells; type: functional, cell-based, Homo sapiens; settings: Homo sapiens, EB-3;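 further: human EB-3 cells, growth inhibition read out via a cell viability assay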
# Description: SANGER: Inhibition of human EB-3 cell growth in a cell viability assay.
# [39] = tested on: K052; assay: cells; type: functional, cell-based, Homo sapiens; settings: Homo sapiens, K052;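 further: Read-out from a cell viability assay, IC50 reflecting suppression of K052 cell growth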
# Description: SANGER: Inhibition of human K052 cell growth in a cell viability assay.
# [40] = tested on: MC-CAR; assay: cells; type: functional, cell-based, Homo sapiens; settings: Homo sapiens, MC-CAR;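 further: growth inhibition of the human MC-CAR cell line, read out by a cell viability assay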
# Description: SANGER: Inhibition of human MC-CAR cell growth in a cell viability assay.
# [41] = tested on: NCCIT; assay: SANGER: Inhibition of human NCCIT cell growth in a cell viability assay.; type: functional, cell-based; settings: Homo sapiens, NCCIT
# [42] = tested on: NCI-H187; assay: cells; type: functional, cell-based, Homo sapiens; settings: Homo sapiens, NCI-H187;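 further: growth inhibition of NCI-H187 cells, read out as cell viability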
# Description: SANGER: Inhibition of human NCI-H187 cell growth in a cell viability assay.
# [43] = tested on: NCI-H322M; assay: cells; type: functional, cell-based, Homo sapiens; settings: Homo sapiens, NCI-H322M;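 further: cell viability assay measuring inhibition of growth of human NCI-H322M cells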
# Description: SANGER: Inhibition of human NCI-H322M cell growth in a cell viability assay.
# [44] = tested on: NCI-H64; assay: cells; type: functional, cell-based, Homo sapiens; settings: Homo sapiens, NCI-H64;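 further: growth inhibition of NCI-H64 cells, read out with a cell viability assay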
# Description: SANGER: Inhibition of human NCI-H64 cell growth in a cell viability assay.
# [45] = tested on: NCI-H719; assay: cells; type: functional, cell-based, Homo sapiens; settings: Homo sapiens, NCI-H719;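 further: growth inhibition of the cultured cell line, read out with a viability assay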
# Description: SANGER: Inhibition of human NCI-H719 cell growth in a cell viability assay.
# [46] = tested on: P31-FUJ; assay: cells; type: functional, cell-based, Homo sapiens; settings: Homo sapiens, P31-FUJ;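 further: growth inhibition of P31-FUJ cells, read out with a viability assay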
# Description: SANGER: Inhibition of human P31-FUJ cell growth in a cell viability assay.
# [47] = tested on: SK-MM-2; assay: cells; type: functional, cell-based, Homo sapiens; settings: Homo sapiens, SK-MM-2;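 further: growth inhibition of human SK-MM-2 cells, read out with a cell viability assay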
# Description: SANGER: Inhibition of human SK-MM-2 cell growth in a cell viability assay.
# [48] = tested on: TUR; assay: cells; type: functional, cell-based, Homo sapiens; settings: Homo sapiens, TUR;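 further: growth inhibition of human TUR cells, read out with a cell viability assay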
# Description: SANGER: Inhibition of human TUR cell growth in a cell viability assay.
smiles,measurement,setting,value
CN(C)C(=N)NC(=N)N [METFORMIN],IC50,[1],> 20000 µM
same,IC50,[2],> 20000 µM
same,IC50,[3],> 20000 µM
same,IC50,[4],11300 µM
same,IC50,[5],7800 µM
same,IC50,[6],> 20000 µM
same,IC50,[7],16900 µM
same,IC50,[8],18500 µM
same,IC50,[9],8620 µM
same,IC50,[10],18100 µM
same,IC50,[11],> 20000 µM
same,IC50,[12],> 20000 µM
same,IC50,[13],6170 µM
same,IC50,[14],> 20000 µM
same,IC50,[15],> 20000 µM
same,IC50,[16],> 20000 µM
same,IC50,[17],> 20000 µM
same,IC50,[18],> 20000 µM
same,IC50,[19],> 20000 µM
same,IC50,[20],> 20000 µM
same,IC50,[21],> 20000 µM
same,IC50,[22],5370 µM
same,IC50,[23],> 20000 µM
same,IC50,[24],9970 µM
same,IC50,[25],> 20000 µM
Cn1cnc2c(F)c(Nc3ccc(Br)cc3Cl)c(C(=O)NOCCO)cc21 [SELUMETINIB],IC50,[1],3.96 µM
same,IC50,[2],0.128 µM
same,IC50,[3],> 4 µM
same,IC50,[26],> 4 µM
same,IC50,[4],> 4 µM
same,IC50,[5],> 4 µM
same,IC50,[27],> 4 µM
same,IC50,[28],> 4 µM
same,IC50,[29],> 4 µM
same,IC50,[6],> 4 µM
same,IC50,[7],> 4 µM
same,IC50,[8],> 4 µM
same,IC50,[30],> 4 µM
same,IC50,[9],> 4 µM
same,IC50,[10],> 4 µM
same,IC50,[11],> 4 µM
same,IC50,[12],> 4 µM
same,IC50,[13],> 4 µM
same,IC50,[14],2.29 µM
same,IC50,[15],> 4 µM
same,IC50,[16],> 4 µM
same,IC50,[17],> 4 µM
same,IC50,[18],> 4 µM
same,IC50,[19],> 4 µM
same,IC50,[20],> 4 µM
same,IC50,[21],> 4 µM
same,IC50,[31],1.52 µM
same,IC50,[22],0.324 µM
same,IC50,[32],0.182 µM
same,IC50,[33],> 4 µM
same,IC50,[23],> 4 µM
same,IC50,[25],> 4 µM
same,IC50,[34],3.97 µM
CC(C)c1ccccc1Cc1cc(C(=O)Nc2ccc(S(=O)(=O)c3ccccc3C(C)(C)C)cc2)c(O)c(O)c1O,IC50,[1],0.591 µM
same,IC50,[2],0.0696 µM
same,IC50,[35],0.958 µM
same,IC50,[26],0.28 µM
same,IC50,[4],0.193 µM
same,IC50,[5],2.03 µM
same,IC50,[27],0.841 µM
same,IC50,[28],0.108 µM
same,IC50,[29],4.59 µM
same,IC50,[6],0.214 µM
same,IC50,[7],7.08 µM
same,IC50,[8],1 µM
same,IC50,[30],1.04 µM
same,IC50,[9],0.267 µM
same,IC50,[10],0.492 µM
same,IC50,[11],0.471 µM
same,IC50,[12],3.77 µM
same,IC50,[13],0.629 µM
same,IC50,[14],1.51 µM
same,IC50,[15],0.576 µM
same,IC50,[16],0.248 µM
same,IC50,[17],0.213 µM
same,IC50,[18],0.238 µM
same,IC50,[19],0.112 µM
same,IC50,[20],0.261 µM
same,IC50,[21],0.606 µM
same,IC50,[31],0.0978 µM
same,IC50,[22],0.973 µM
same,IC50,[32],0.286 µM
same,IC50,[33],1.12 µM
same,IC50,[23],0.552 µM
same,IC50,[24],1.43 µM
same,IC50,[25],1.31 µM
C=C(c1ccc(C(=O)O)cc1)c1cc2c(cc1C)C(C)(C)CCC2(C)C [BEXAROTENE],IC50,[1],> 8 µM
same,IC50,[2],> 8 µM
same,IC50,[36],> 8 µM
same,IC50,[3],> 8 µM
same,IC50,[37],> 8 µM
same,IC50,[38],> 8 µM
same,IC50,[4],> 8 µM
same,IC50,[5],> 8 µM
same,IC50,[39],> 8 µM
same,IC50,[40],> 8 µM
same,IC50,[27],> 8 µM
same,IC50,[28],> 8 µM
same,IC50,[29],> 8 µM
same,IC50,[41],> 8 µM
same,IC50,[7],> 8 µM
same,IC50,[8],> 8 µM
same,IC50,[42],> 8 µM
same,IC50,[30],> 8 µM
same,IC50,[9],> 8 µM
same,IC50,[43],> 8 µM
same,IC50,[44],> 8 µM
same,IC50,[45],> 8 µM
same,IC50,[10],> 8 µM
same,IC50,[11],> 8 µM
same,IC50,[46],> 8 µM
same,IC50,[12],> 8 µM
same,IC50,[13],5.17 µM
same,IC50,[14],> 8 µM
same,IC50,[47],> 8 µM
same,IC50,[15],> 8 µM
same,IC50,[16],> 8 µM
same,IC50,[17],> 8 µM
same,IC50,[18],> 8 µM
same,IC50,[19],> 8 µM
same,IC50,[20],> 8 µM
same,IC50,[21],> 8 µM
same,IC50,[31],> 8 µM
same,IC50,[22],> 8 µM
same,IC50,[32],> 8 µM
same,IC50,[33],3.96 µM
same,IC50,[48],> 8 µM
same,IC50,[23],> 8 µM
same,IC50,[24],> 8 µM
same,IC50,[25],> 8 µM
same,IC50,[34],> 8 µM
